This passage reports EC50 results from patent publication US20180362543A1, “HIV REPLICATION INHIBITOR” (Shionogi & Co., Ltd., priority 2013, published 2018).

The first experiment relates to HIV (HTLV-III B strain). The experiment in a line: HIV replication inhibition assay (MTT, MT-4 cells). The class given is cell-based. The settings on record: 4 days culture, concentration at which cell cytotoxicity by virus is inhibited 50%. The method, then:
HIV (HTLV-III B strain) persistent infected human T cell strain Molt-4 clone 8 was cultured in 10% Fetal Bovine Serum-containing RPMI-1640 medium and the supernatant was filtrated, then the virus titer was measured and the solution was stored at −80° C. Each anti-human immunodeficiency virus active substance was diluted with the above cultured medium to the designated concentration, which was dispensed into 96 well micro plate by 50 μL. Next, a MT-4 cell suspended liquid was dispensed by 100 μL (2.5×10^4 cells), then the above HIV-containing supernatant diluted with the above cultured medium was added thereto by 50 μL (60 pfu (plaque forming unit)).
The obtained mixture was cultured at 37° C. in CO2 incubator for four days, then 3-(4,5-dimehylthiazole-2-yl)-2,5-diphenyltetrazolynium bromide (MTT) 5 mg/mL in PBS was added to each well by 30 μL, followed by 1 hr-cultivation. In this step, as formazan was precipitated by reduction of MTT in living cells, the cell supernatant was removed from all well by 150 μL, then a 150 μL of solution (10% Triton X-100 and […]) was added thereto, followed by shaking with a plate mixer, to elute formazan. The formazan was measured with a microreader at OD: 560 nm and 690 nm (wavelength) and the result was compared with the reference. EC50 means the compound concentration at which cell cytotoxicity by virus is inhibited 50%.
`Cc1c(C(OC(C)(C)C)C(=O)O)c(-c2ccc3c(c2)CCCO3)c(C)c2c1[nH]c(=O)n2Cc1ccccc1` (centres unmarked) [Compound 3] returned an EC50 of 0.064 µM.

On to `Cc1c(-c2c([C@H](OC(C)(C)C)C(=O)O)c(C)c3nc(O)c4ccccc4c3c2C)ccc2c1CCCO2` [Compound 8], for which the EC50 was 0.062 µM.

Staying with this experiment, now noted: Human immunodeficiency virus 1, MT4, 96 h, 4 days culture, concentration at which cell cytotoxicity by virus is inhibited 50%.
With `Cc1c([C@H](OC(C)(C)C)C(=O)O)c(-c2ccc3c(c2)CCCO3)c(C)c2c1ncc1ccsc12` [Compound 17], the EC50 is 0.059 µM.

As to `Cc1ccc(-c2c(C)c3c(c(C)c2[C@H](OC(C)(C)C)C(=O)O)N(S(C)(=O)=O)Cc2ccccc2-3)cc1` [Compound 20], it took 0.013 µM to reach a half-maximal effect (EC50).

Compound `Cc1ccc(-c2c(C)c3c(c(C)c2[C@H](OC(C)(C)C)C(=O)O)NC(=O)CCc2ccccc2-3)cc1` [Compound 42] came in with an EC50 of 0.01 µM.

In turn, `Cc1ccc(-c2c(C)c3c(c(C)c2[C@H](OC(C)(C)C)C(=O)O)NC(=O)c2ccc(C)nc2O3)cc1` [Compound 48] showed an EC50 of 0.029 µM.

Take `Cc1ccc(-c2c(C)c3c(c(C)c2[C@H](OC(C)(C)C)C(=O)O)NC(=O)N(C2CCCCC2)CC3)cc1` [Compound 71]: the EC50 came to 0.016 µM.

With `Cc1c2c3c(c(C(OC(C)(C)C)C(=O)O)c1-c1ccc4c(c1)CCCO4)CCCN3S(=O)(=O)N(Cc1ccccc1)C2` (centres unmarked) [Compound 79], the EC50 came out at 0.015 µM.

Still in this experiment, the particulars now being: Human immunodeficiency virus 1, MT4, 96 h, Table A-2, four days.
Compound `Cc1ccc(-c2c(C)c3c(c(C)c2[C@H](OC(C)(C)C)C(=O)O)NS(=O)(=O)/C=C/CCCCO3)cc1` [Compound 88] gave a 50% effective concentration (EC50) of 0.021 µM.

For `Cc1ccc(-c2c(C)c3c(c(C)c2[C@H](OC(C)(C)C)C(=O)O)NS(=O)(=O)Cc2cc(F)ccc2-3)cc1` [Compound 91], the EC50 was found to be 0.0042 µM.

Regarding `Cc1ccc(-c2c(C)c3c(c(C)c2[C@H](OC(C)(C)C)C(=O)O)NS(=O)(=O)Cc2ccc(F)cc2-3)cc1` [Compound 95], the EC50 amounted to 0.0098 µM.

Regarding `Cc1ccc(-c2c([C@H](OC(C)(C)C)C(=O)O)c(C)c3nc(O)c4cc(C)ccc4c3c2C)cc1` [Compound 96], the response was half-maximal at 0.032 µM (EC50).

In the case of `Cc1ccc(-c2c([C@H](OC(C)(C)C)C(=O)O)c(C)c3nc(O)c4cc(C(F)(F)F)ccc4c3c2C)cc1` [Compound 98], the EC50 worked out at 0.022 µM.

The compound `Cc1ccc(-c2c([C@H](OC(C)(C)C)C(=O)O)c(C)c3ncc4cc5ccccc5nc4c3c2C)cc1` [Compound 99] yielded a 50% effective concentration (EC50) of 0.097 µM.

The compound `Cc1ccc(-c2c([C@H](OC(C)(C)C)C(=O)O)c(C)c3nc(O)c4cc(F)cnc4c3c2C)cc1` [Compound 100] had an EC50 of 0.01 µM.

On to `Cc1ccc(-c2c([C@H](OC(C)(C)C)C(=O)O)c(C)c3nc(O)c4cc5ccsc5nc4c3c2C)cc1` [Compound 101], for which a half-maximal effect (EC50) was put at 0.017 µM.

Turning to `Cc1ccc(-c2c(C)c3c(c(C)c2[C@H](OC(C)(C)C)C(=O)O)N(S(C)(=O)=O)Cc2cc(F)c(F)cc2-3)cc1` [Compound 108], the EC50 is 0.012 µM. The EC50 values of the last two compounds are within 1.5-fold of each other.

In turn, `Cc1ccc(-c2c(C)c3c(c(C)c2[C@H](OC(C)(C)C)C(=O)O)N(S(C)(=O)=O)Cc2cccc(F)c2-3)cc1` [Compound 109] yielded a concentration for a half-maximal effect (EC50) of 0.0091 µM.

The compound `Cc1ccc(-c2c(C)c3c(c(C)c2[C@H](OC(C)(C)C)C(=O)O)N(S(C)(=O)=O)Cc2ccc(C)cc2-3)cc1` [Compound 110] yielded an EC50 of 0.017 µM.

`Cc1ccc(-c2c(C)c3c(c(C)c2[C@H](OC(C)(C)C)C(=O)O)NC(=O)C2(CCC2)N3)cc1` [Compound 111] displayed an EC50 of 0.0078 µM.

As for `Cc1ccc(-c2c(C)c3c(c(C)c2[C@H](OC(C)(C)C)C(=O)O)NC(=O)C2(CCC(C)(C)CC2)N3)cc1` [Compound 112], the EC50 was 0.0085 µM.

For `Cc1ccc(-c2c(C)c3c(c(C)c2[C@H](OC(C)(C)C)C(=O)O)NC(=O)C2(C[C@@H]4CC[C@H]2C4)N3)cc1` (some centres unmarked) [Compound 113], the EC50 was 0.0086 µM.

In turn, `Cc1ccc(-c2c(C)c3c(c(C)c2[C@H](OC(C)(C)C)C(=O)O)N(S(C)(=O)=O)Cc2cc(C)ccc2-3)cc1` [Compound 115] came in with an EC50 of 0.006 µM.

`Cc1ccc(-c2c(C)c3c(c(C)c2[C@H](OC(C)(C)C)C(=O)O)N(S(C)(=O)=O)Cc2c-3ccc3cccnc23)cc1` [Compound 116] showed an EC50 of 0.0029 µM.

`COc1ccc2c(c1)CN(S(C)(=O)=O)c1c(C)c([C@H](OC(C)(C)C)C(=O)O)c(-c3ccc(C)cc3)c(C)c1-2` [Compound 122]: a half-maximal response (EC50) required 0.0038 µM. This EC50 and that of the compound before are within 1.5-fold of each other.

As for `Cc1ccc(-c2c(C)c3c(c(C)c2[C@H](OC(C)(C)C)C(=O)O)NS(=O)(=O)Cc2cccc(C)c2-3)cc1` [Compound 125], the EC50 was determined as 0.039 µM. Against the preceding compound, the EC50 is about 10-fold higher.

In turn, `Cc1ccc(-c2c(C)c3c(c(C)c2[C@H](OC(C)(C)C)C(=O)O)NS(=O)(=O)N(C2CCCCC2)CC3)cc1` [Compound 127] gave an EC50 of 0.011 µM.

The compound `Cc1ccc(-c2c(C)c3c(c(C)c2[C@H](OC(C)(C)C)C(=O)O)NS(=O)(=O)N(C2CCCCCC2)CC3)cc1` [Compound 128] returned an EC50 of 0.01 µM. This EC50 and that of the compound before are within 1.5-fold of each other.

`Cc1ccc(-c2c(C)c3c(c(C)c2[C@H](OC(C)(C)C)C(=O)O)NS(=O)(=O)N(C2CCCC2)CC3)cc1` [Compound 129] gave an EC50 of 0.0077 µM.

Consider `Cc1ccc(-c2c(C)c3c(c(C)c2[C@H](OC(C)(C)C)C(=O)O)NS(=O)(=O)N(CC2CCCCC2)CC3)cc1` [Compound 130], for which it took 0.012 µM to reach a half-maximal effect (EC50).

Take `Cc1ccc(-c2c(C)c3c(c(C)c2[C@H](OC(C)(C)C)C(=O)O)NS(=O)(=O)N(C2CCOCC2)CC3)cc1` [Compound 131]: the midpoint of the response, the EC50, lay at 0.087 µM. This EC50 is about 7.2-fold higher than that of the compound before.

For the compound `COCCN1CCc2c(C)c(-c3ccc(C)cc3)c([C@H](OC(C)(C)C)C(=O)O)c(C)c2NS1(=O)=O` [Compound 132], the EC50 amounted to 0.022 µM.

Take `Cc1ccc(-c2c(C)c3c(c(C)c2[C@H](OC(C)(C)C)C(=O)O)NS(=O)(=O)N(Cc2ccc(F)cc2)CC3)cc1` [Compound 133]: the EC50 is 0.0048 µM.

`Cc1ccc(-c2c(C)c3c(c(C)c2[C@H](OC(C)(C)C)C(=O)O)NS(=O)(=O)N(C(c2ccccc2)c2ccccc2)CC3)cc1` [Compound 134] showed an EC50 of 0.062 µM. This EC50 lies about 13-fold higher than the previous one.

Still in this experiment, the particulars now being: Human immunodeficiency virus 1, MT4, 96 h, Table A-3, four days.
`Cc1ccc(-c2c(C)c3c(c(C)c2[C@H](OC(C)(C)C)C(=O)O)NC(=O)C2(CCCCCC2)N3)cc1` [Compound 140]: the response was half-maximal at 0.0031 µM (EC50).

`Cc1ccc(-c2c(C)c3c(c(C)c2[C@H](OC(C)(C)C)C(=O)O)N(S(C)(=O)=O)Cc2c-3ccc(C)c2F)cc1` [Compound 141] had a concentration for a half-maximal effect (EC50) of 0.0035 µM. This EC50 and that of the compound before are within 1.5-fold of each other.

In turn, `Cc1ccc(-c2c(C)c3c(c(C)c2[C@H](OC(C)(C)C)C(=O)O)N(S(C)(=O)=O)Cc2c(F)ccc(F)c2-3)cc1` [Compound 142] returned an EC50 of 0.0044 µM.

In the case of `Cc1ccc(-c2c(C)c3c(c(C)c2[C@H](OC(C)(C)C)C(=O)O)N(S(C)(=O)=O)Cc2cccnc2-3)cc1` [Compound 145], the EC50 was 0.039 µM.

Take `Cc1ccc(-c2c(C)c3c(c(C)c2[C@H](OC(C)(C)C)C(=O)O)NC(=O)N(C2CCCCCC2)CC3)cc1` [Compound 148]: the EC50 stood at 0.0088 µM.

`Cc1ccc(-c2c(C)c3c(c(C)c2[C@H](OC(C)(C)C)C(=O)O)NC(=O)N(C2CCCC2)CC3)cc1` [Compound 149] had an EC50 of 0.023 µM. This EC50 is about 2.6-fold higher than that of the compound before.

With `Cc1ccc(-c2c(C)c3c(c(C)c2[C@H](OC(C)(C)C)C(=O)O)NC(=O)N(CC2CCCCC2)CC3)cc1` [Compound 150], the EC50 came to 0.022 µM.

With `Cc1ccc(-c2c(C)c3c(c(C)c2[C@H](OC(C)(C)C)C(=O)O)NC(=O)N(C(c2ccccc2)c2ccccc2)CC3)cc1` [Compound 152], a half-maximal response (EC50) required 0.016 µM.

In the case of `Cc1ccc(-c2c([C@H](OC(C)(C)C)C(=O)O)c(C)c3nc(O)c4c(c3c2C)CCN(S(=O)(=O)c2ccc(F)cc2)C4)cc1` [Compound 153], the EC50 came out at 0.047 µM.

Compound `Cc1ccc(-c2c(C)c3c(c(C)c2[C@H](OC(C)(C)C)C(=O)O)N(S(=O)(=O)C2CC2)Cc2ccccc2-3)cc1` [Compound 155] yielded an EC50 of 0.039 µM.

For `Cc1ccc(-c2c(C)c3c(c(C)c2[C@H](OC(C)(C)C)C(=O)O)NS(=O)(=O)Cc2cccc(F)c2-3)cc1` [Compound 156], the EC50 was found to be 0.023 µM. This EC50 is about 1.7-fold lower than that of the compound before.

The same experiment, now with this note: Table A-2, four days.
Regarding `Cc1ccc(-c2c(C)c3c(c(C)c2[C@H](OC(C)(C)C)C(=O)O)N(S(C)(=O)=O)Cc2cc4c(cc2-3)OCCO4)cc1` [Compound 104], the 50% effective concentration (EC50) turned out to be 0.0021 µM.

On to `Cc1ccc(-c2c(C)c3c(c(C)c2[C@H](OC(C)(C)C)C(=O)O)N(S(C)(=O)=O)Cc2cc4c(cc2-3)OCCO4)cc1` [Compound 105], for which the EC50 came to 0.038 µM.

The compound `Cc1ccc(-c2c(C)c3c(c(C)c2[C@H](OC(C)(C)C)C(=O)O)NS(=O)(=O)Cc2cc(C)ccc2-3)cc1` [Compound 117] came in with an EC50 of 0.019 µM. This EC50 lies about 2-fold lower than the previous one.

For `Cc1ccc(-c2c(C)c3c(c(C)c2[C@H](OC(C)(C)C)C(=O)O)NS(=O)(=O)Cc2cc(C)ccc2-3)cc1` [Compound 118], the response was half-maximal at 0.0044 µM (EC50).

In the case of `Cc1ccc(-c2c(C)c3c(c(C)c2[C@H](OC(C)(C)C)C(=O)O)NS(=O)(=O)Cc2ccc(C)cc2-3)cc1` [Compound 119], the EC50 was determined as 0.043 µM.

In the case of `Cc1ccc(-c2c(C)c3c(c(C)c2[C@H](OC(C)(C)C)C(=O)O)NS(=O)(=O)Cc2ccc(C)cc2-3)cc1` [Compound 120], it took 0.0051 µM to reach a half-maximal effect (EC50).

`Cc1ccc(-c2c(C)c3c(c(C)c2[C@H](OC(C)(C)C)C(=O)O)NS(=O)(=O)Cc2c(F)cccc2-3)cc1` [Compound 123] had an EC50 of 0.089 µM. Compared with the last compound, the EC50 is about 17-fold higher.

On to `Cc1ccc(-c2c(C)c3c(c(C)c2[C@H](OC(C)(C)C)C(=O)O)NS(=O)(=O)Cc2c(F)cccc2-3)cc1` [Compound 124], for which the midpoint of the response, the EC50, lay at 0.0082 µM.

The term EC50 denotes the concentration at which the effect is half-maximal. Low values mean a more potent agent, high ones a less potent agent.
